The record followed here is ChEMBL document CHEMBL1140154, “1H-cyclopentapyrimidine-2,4(1H,3H)-dione-related ionotropic glutamate receptors ligands. structure-activity relationships and identification of potent and Selective iGluR5 modulators” (J Med Chem, 2008).

Assay [1] concerns the target T1, Glutamate receptor 1 (Rattus norvegicus, UniProt P19490). The experiment in a line: biochemical.
For assay [2], the target named is Glutamate receptor ionotropic, kainate 2 (Rattus norvegicus, UniProt P42260). The experiment in a line: Displacement of [3H]kainic acid from rat recombinant iGluR6(V,C,R) receptor expressed in Sf9 cells. On the technique in general: Loss of bound radioactivity is the signal in a displacement assay; it reports binding, not function.
The target in assay [3] is T2, Glutamate receptor 4 (Rattus norvegicus, UniProt P19493). The experiment in a line: biochemical.
Assay [4] deals with Glutamate receptor ionotropic, kainate 1 (Rattus norvegicus, UniProt P22756). Put plainly: biochemical.
Assay [5] addresses T3, Glutamate receptor 3 (Rattus norvegicus, UniProt P19492). The experiment in a line: Agonist activity at cyclothiazide-desensitized rat recombinant flip iGluR3 expressed in Xenopus laevis oocytes by two electrode voltage-clamp electrophysiology method. The format is functional, cell-based, Oocyte. (In general: In two-electrode clamp one electrode senses voltage and the other passes current.)

In assay [6] the target is T3, Glutamate receptor 3. Put plainly: biochemical.
The target in assay [7] is T1, Glutamate receptor 1. Put plainly: Agonist activity at cyclothiazide-desensitized rat recombinant flip iGluR1 expressed in Xenopus laevis oocytes by two electrode voltage-clamp electrophysiology method. Type of assay: functional, cell-based, Oocyte.
Assay [8] has as its target T4, Glutamate receptor 1 (Homo sapiens, UniProt P42261). Put plainly: Antagonist activity at human flip iGluR1 expressed in CHO-K1 cells by whole cell patch-clamp method. Type of assay: functional, cell-based. Background: Patch clamp records ionic current or voltage across a cell membrane.
Assay [9] addresses T5, Glutamate receptor 2 (Rattus norvegicus, UniProt P19491). The experiment in a line: biochemical.
Assay [10] addresses T2, Glutamate receptor 4. The experiment in a line: Agonist activity at cyclothiazide-desensitized rat recombinant flip iGluR4 expressed in Xenopus laevis oocytes by two electrode voltage-clamp electrophysiology method. Type of assay: functional, cell-based, Oocyte.
Assay [11] addresses T5, Glutamate receptor 2.
The target in assay [12] is T4, Glutamate receptor 1. The experiment in a line: Agonist activity at cyclothiazide-desensitized human flip iGluR1 expressed in CHO-K1 cells by whole cell patch-clamp method. The format is functional, cell-based.
For assay [13], the target named is Glutamate receptor ionotropic, kainate 1 (Homo sapiens, UniProt P39086). Put plainly: Antagonist activity at human iGluR5(Q)1b expressed in CHO-K1 cells by whole cell patch-clamp method. Type of assay: functional, cell-based.
For assay [14], the target named is T1, Glutamate receptor 1. The experiment in a line: Agonist activity at cyclothiazide-desensitized rat recombinant flop iGluR1 expressed in Xenopus laevis oocytes by two electrode voltage-clamp electrophysiology method. The format is functional, cell-based, Oocyte.

Each structure is given as a SMILES string.

T3 sequence (P19492 whole entry): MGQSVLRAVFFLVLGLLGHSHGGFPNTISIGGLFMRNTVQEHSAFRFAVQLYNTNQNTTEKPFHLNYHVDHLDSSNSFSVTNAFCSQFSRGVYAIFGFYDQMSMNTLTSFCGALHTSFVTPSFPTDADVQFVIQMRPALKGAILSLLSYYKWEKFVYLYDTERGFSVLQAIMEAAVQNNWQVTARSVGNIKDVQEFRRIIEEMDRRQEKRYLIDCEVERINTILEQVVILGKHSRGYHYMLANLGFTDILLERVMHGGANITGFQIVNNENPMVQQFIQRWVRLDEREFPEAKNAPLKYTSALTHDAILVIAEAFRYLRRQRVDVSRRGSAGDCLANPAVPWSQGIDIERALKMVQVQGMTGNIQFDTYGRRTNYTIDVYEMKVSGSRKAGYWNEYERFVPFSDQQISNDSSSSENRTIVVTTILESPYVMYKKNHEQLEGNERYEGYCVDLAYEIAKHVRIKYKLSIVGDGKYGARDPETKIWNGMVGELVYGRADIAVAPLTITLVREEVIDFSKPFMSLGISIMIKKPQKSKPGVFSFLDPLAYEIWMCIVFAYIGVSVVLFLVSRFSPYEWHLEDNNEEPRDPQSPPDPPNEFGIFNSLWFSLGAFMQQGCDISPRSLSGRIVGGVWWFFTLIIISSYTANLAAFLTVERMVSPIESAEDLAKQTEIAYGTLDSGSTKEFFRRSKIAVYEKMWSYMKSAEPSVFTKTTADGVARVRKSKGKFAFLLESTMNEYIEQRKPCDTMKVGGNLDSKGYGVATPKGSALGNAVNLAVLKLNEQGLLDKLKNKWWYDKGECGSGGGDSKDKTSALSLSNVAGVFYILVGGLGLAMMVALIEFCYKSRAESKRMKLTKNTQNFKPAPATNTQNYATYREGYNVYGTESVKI
Glutamate receptor ionotropic, kainate 2, sequence (P42260 whole entry): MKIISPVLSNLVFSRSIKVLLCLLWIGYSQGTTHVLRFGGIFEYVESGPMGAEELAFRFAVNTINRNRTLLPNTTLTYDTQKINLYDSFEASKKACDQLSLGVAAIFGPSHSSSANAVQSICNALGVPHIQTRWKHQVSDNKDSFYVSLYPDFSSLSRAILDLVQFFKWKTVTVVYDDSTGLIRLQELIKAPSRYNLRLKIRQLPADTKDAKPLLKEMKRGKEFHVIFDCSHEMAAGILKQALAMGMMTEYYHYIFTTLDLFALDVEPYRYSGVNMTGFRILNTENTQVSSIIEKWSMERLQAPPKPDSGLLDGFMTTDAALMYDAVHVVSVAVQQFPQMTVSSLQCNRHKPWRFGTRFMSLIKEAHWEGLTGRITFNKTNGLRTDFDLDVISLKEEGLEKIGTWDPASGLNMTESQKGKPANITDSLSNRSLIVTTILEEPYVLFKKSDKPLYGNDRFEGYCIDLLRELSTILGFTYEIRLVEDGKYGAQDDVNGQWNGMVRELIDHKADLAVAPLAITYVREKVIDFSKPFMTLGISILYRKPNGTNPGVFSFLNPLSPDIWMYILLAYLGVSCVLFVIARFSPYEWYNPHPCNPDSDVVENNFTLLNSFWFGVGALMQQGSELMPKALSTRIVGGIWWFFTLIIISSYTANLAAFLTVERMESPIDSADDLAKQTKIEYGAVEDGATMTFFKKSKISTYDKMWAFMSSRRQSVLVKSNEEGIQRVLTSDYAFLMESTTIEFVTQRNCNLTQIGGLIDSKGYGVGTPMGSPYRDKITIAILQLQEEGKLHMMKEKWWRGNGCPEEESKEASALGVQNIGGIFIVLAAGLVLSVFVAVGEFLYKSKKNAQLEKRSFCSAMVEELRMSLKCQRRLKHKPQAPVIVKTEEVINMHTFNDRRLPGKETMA
T5 sequence (P19491 whole entry): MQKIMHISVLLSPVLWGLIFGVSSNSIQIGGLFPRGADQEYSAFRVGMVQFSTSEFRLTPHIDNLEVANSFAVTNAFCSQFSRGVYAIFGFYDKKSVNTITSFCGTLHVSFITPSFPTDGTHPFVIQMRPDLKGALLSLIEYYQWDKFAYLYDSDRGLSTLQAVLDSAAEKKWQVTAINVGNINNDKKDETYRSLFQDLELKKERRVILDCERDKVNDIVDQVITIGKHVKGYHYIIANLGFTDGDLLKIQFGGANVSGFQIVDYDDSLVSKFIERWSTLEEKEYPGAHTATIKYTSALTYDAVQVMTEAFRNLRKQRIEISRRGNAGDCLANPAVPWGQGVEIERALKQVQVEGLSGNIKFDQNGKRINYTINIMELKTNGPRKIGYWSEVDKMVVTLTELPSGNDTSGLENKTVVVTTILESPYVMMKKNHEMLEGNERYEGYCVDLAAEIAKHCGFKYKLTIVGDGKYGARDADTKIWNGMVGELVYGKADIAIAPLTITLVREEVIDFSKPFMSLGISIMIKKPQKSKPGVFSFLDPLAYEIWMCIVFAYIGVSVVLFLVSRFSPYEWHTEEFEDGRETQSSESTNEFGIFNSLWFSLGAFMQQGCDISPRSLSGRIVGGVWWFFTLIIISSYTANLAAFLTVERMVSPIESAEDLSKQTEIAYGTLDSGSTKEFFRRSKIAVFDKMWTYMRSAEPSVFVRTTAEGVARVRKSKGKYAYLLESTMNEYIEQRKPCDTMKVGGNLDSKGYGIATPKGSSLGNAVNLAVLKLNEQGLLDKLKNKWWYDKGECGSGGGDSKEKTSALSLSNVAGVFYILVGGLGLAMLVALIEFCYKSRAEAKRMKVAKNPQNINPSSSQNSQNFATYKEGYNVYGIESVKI
T1 sequence (P19490 whole entry): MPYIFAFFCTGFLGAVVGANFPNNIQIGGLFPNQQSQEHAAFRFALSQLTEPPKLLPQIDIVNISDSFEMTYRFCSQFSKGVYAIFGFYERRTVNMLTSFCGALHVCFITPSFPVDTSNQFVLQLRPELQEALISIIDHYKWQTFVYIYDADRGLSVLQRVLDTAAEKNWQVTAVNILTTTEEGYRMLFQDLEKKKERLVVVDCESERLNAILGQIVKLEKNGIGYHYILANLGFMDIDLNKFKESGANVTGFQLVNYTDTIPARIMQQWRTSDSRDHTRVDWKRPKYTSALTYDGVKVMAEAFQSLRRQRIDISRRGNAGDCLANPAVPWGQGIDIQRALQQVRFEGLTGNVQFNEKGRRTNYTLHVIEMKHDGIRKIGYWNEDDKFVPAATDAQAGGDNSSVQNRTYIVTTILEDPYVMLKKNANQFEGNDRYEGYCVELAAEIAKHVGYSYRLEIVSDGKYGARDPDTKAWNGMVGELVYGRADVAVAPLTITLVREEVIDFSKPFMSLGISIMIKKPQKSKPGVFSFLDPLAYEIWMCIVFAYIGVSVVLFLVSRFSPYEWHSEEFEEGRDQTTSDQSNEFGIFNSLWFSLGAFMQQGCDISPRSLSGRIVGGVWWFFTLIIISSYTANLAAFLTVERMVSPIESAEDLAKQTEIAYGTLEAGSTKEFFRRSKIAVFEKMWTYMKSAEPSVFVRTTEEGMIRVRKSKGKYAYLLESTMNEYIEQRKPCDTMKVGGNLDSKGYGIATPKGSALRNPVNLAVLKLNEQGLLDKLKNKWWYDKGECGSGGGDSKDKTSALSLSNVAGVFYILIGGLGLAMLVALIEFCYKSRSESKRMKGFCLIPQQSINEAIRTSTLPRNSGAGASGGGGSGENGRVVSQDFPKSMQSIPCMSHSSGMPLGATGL
T4 sequence (P42261 whole entry): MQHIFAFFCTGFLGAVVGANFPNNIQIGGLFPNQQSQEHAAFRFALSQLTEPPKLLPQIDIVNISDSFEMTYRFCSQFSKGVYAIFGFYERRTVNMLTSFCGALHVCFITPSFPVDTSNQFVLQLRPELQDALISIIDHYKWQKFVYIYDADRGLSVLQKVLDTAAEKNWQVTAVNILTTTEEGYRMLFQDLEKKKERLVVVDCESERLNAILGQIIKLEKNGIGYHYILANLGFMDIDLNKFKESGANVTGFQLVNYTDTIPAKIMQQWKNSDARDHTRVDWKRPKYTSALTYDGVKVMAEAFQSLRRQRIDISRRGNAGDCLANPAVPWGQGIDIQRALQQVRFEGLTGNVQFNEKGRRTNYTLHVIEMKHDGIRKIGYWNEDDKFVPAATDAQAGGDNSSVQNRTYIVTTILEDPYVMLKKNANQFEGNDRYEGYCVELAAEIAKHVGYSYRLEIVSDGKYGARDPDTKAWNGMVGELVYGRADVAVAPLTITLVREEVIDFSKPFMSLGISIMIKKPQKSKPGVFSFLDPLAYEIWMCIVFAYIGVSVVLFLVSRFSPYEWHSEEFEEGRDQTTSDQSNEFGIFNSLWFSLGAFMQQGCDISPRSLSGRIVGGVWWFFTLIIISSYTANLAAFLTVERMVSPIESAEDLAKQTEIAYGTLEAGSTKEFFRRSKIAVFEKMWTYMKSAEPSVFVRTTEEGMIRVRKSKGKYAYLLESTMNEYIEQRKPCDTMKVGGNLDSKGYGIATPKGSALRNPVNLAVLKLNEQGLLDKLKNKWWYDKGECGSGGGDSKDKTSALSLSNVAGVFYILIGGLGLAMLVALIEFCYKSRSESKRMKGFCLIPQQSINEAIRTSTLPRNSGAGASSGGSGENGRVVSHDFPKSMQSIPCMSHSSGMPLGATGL

Usually Ki stands for a measure of affinity in units of concentration, obtained from inhibition or displacement. Consider `NC(Cn1ccc(=O)[nH]c1=O)C(=O)O` (stereo not given), for which the Ki is 0.41 µM on Glutamate receptor 1 [1], greater than 1000 µM in assay [2], 14.2 µM at Glutamate receptor 4 [3] and greater than 100 µM in assay [4].
One may read the EC50 as the concentration that produces a half-maximal response. As usually defined, the IC50 is the concentration that inhibits the measured activity by half. The low end stands for inhibition by little substance, the high end for a need for much substance. Regarding `N[C@@H](Cn1c(=O)[nH]c(=O)c2sccc21)C(=O)O`, the inhibition constant Ki on Glutamate receptor 1 [1] is 0.05 µM; on Glutamate receptor 3 [6], 0.936 µM; in [2], greater than 1000 µM; at Glutamate receptor 2 [9], 0.112 µM; at Glutamate receptor 4 [3], 0.804 µM. In addition, the EC50 on Glutamate receptor 3 [5] came to 120 µM; at Glutamate receptor 1 [7], 7.2 µM; on Glutamate receptor 4 [10], 90 µM; on Glutamate receptor 2 [11], 11.8 µM; at Glutamate receptor 1 [12], 4.1 µM. The same molecule came in with an IC50 on Glutamate receptor 1 [8] of 0.374 µM.
`N[C@@H](Cn1c2c(c(=O)[nH]c1=O)CSC2)C(=O)O`: the Ki is 0.058 µM at Glutamate receptor 1 [1], 0.311 µM at Glutamate receptor 3 [6], greater than 1000 µM in [2] and 0.288 µM on Glutamate receptor 4 [3]. Moreover, the EC50 amounted to 33.9 µM on Glutamate receptor 3 [5], 11.8 µM at Glutamate receptor 1 [7], 24.2 µM on Glutamate receptor 4 [10] and 18.5 µM at Glutamate receptor 1 [12]. In addition, the figures for the IC50 in assay [13] and in assay [4] were 0.0038 µM and 0.0052 µM, respectively.
Consider `N[C@@H](Cn1ccc(=O)[nH]c1=O)C(=O)O` [(S)-WILLARDIINE], for which the EC50 on Glutamate receptor 1 [14] came out at 11.5 µM.
Take `N[C@H](Cn1c2c(c(=O)[nH]c1=O)CCC2)C(=O)O`: the figures for the Ki at Glutamate receptor 1 [1] and on Glutamate receptor 4 [3] were 10.4 µM and greater than 100 µM, respectively.
For the molecule `N[C@@H](CCn1c2c(c(=O)n(CC[C@H](N)C(=O)O)c1=O)CCC2)C(=O)O`, the Ki is greater than 100 µM at Glutamate receptor 1 [1]; greater than 100 µM at Glutamate receptor 3 [6]; greater than 100 µM in [2]; greater than 100 µM at Glutamate receptor 2 [9]; greater than 100 µM on Glutamate receptor 4 [3]; greater than 1000 µM in assay [4].
For the molecule `N[C@@H](Cn1c2c(c(=O)[nH]c1=O)CCC2)C(=O)O`, the Ki at Glutamate receptor 1 [1] was 0.109 µM; on Glutamate receptor 3 [6], 1.89 µM; in assay [2] it was greater than 1000 µM; at Glutamate receptor 4 [3] it was 2.09 µM; in assay [4], 0.044 µM. Also, the EC50 on Glutamate receptor 1 [14] was 24.9 µM.
As for `N[C@@H](Cn1cc(Br)c(=O)[nH]c1=O)C(=O)O`, at Glutamate receptor 1 [14], the EC50 was 2.8 µM.
`N[C@@H](Cn1cc(Cl)c(=O)[nH]c1=O)C(=O)O`: the Ki on Glutamate receptor 1 [1] was 0.037 µM; at Glutamate receptor 3 [6], 0.451 µM; in [2] it was greater than 100 µM; at Glutamate receptor 4 [3], 0.561 µM; in [4], 0.047 µM.
Turning to `CC1(C)Cc2c(n(C[C@H](N)C(=O)O)c(=O)[nH]c2=O)C1`, the Ki at Glutamate receptor 1 [1] is 0.102 µM; on Glutamate receptor 3 [6], 1.51 µM; in assay [2] it was greater than 1000 µM; on Glutamate receptor 2 [9], 0.126 µM; at Glutamate receptor 4 [3], 1.59 µM; in assay [4], 0.976 µM.
With `N[C@@H](Cn1cc(I)c(=O)[nH]c1=O)C(=O)O`, the Ki at Glutamate receptor 1 [1] was 0.083 µM; at Glutamate receptor 3 [6], 0.976 µM; in assay [2], greater than 100 µM; at Glutamate receptor 4 [3], 0.738 µM; in assay [4], 0.0024 µM. The EC50 at Glutamate receptor 1 [14] came out at 33.6 µM.
For `N[C@@H](Cn1c(=O)[nH]c(=O)c2ccccc21)C(=O)O`, the Ki on Glutamate receptor 1 [1] is 2.39 µM; on Glutamate receptor 3 [6], 6.91 µM; in [2], greater than 1000 µM; at Glutamate receptor 2 [9], 3.39 µM; on Glutamate receptor 4 [3] it was 15.7 µM; in assay [4], 0.49 µM.
As for `NC(Cn1cc(Br)c(=O)[nH]c1=O)C(=O)O` (racemic), the Ki at Glutamate receptor 1 [1] was 0.035 µM; at Glutamate receptor 3 [6], 0.434 µM; in assay [2], greater than 100 µM; at Glutamate receptor 4 [3], 0.656 µM; in assay [4] it was 0.0148 µM.
On to `Cc1onc(O)c1CC(N)C(=O)O` (racemic) [(R,S)-AMPA], for which, in assay [2], the Ki is greater than 1000 µM.
The molecule `C=C(C)[C@H]1CN[C@H](C(=O)O)[C@H]1CC(=O)O` [KAINIC ACID] had an inhibition constant Ki at Glutamate receptor 4 [3] of 3.57 µM.
As for `N[C@@H](CCn1c2c(c(=O)[nH]c1=O)CCC2)C(=O)O`, the Ki on Glutamate receptor 1 [1] was greater than 100 µM; at Glutamate receptor 3 [6], greater than 100 µM; in assay [2], greater than 1000 µM; on Glutamate receptor 2 [9] it was greater than 100 µM; on Glutamate receptor 4 [3] it was greater than 100 µM; in [4], greater than 1000 µM.
As to `N[C@@H](Cn1c(=O)[nH]c(=O)c2cocc21)C(=O)O`, the Ki was 35.2 µM at Glutamate receptor 1 [1]; greater than 100 µM on Glutamate receptor 3 [6]; greater than 1000 µM in assay [2]; greater than 100 µM at Glutamate receptor 4 [3]; 2.98 µM in assay [4].
For the molecule `N[C@@H](Cn1cc(F)c(=O)[nH]c1=O)C(=O)O`, the Ki on Glutamate receptor 1 [1] was 0.0029 µM; on Glutamate receptor 3 [6] it was 0.07 µM; in assay [2], greater than 100 µM; at Glutamate receptor 4 [3] it was 0.123 µM; in assay [4], 1.38 µM. Moreover, the EC50 on Glutamate receptor 3 [5] was determined as 20.9 µM; on Glutamate receptor 1 [7], 0.38 µM; on Glutamate receptor 4 [10], 11.9 µM.
